Measurements: ChEMBL document CHEMBL4130500, “New pyridine derivatives as inhibitors of acetylcholinesterase and amyloid aggregation” (Eur J Med Chem, 2017)
The source made the active and inactive calls. The calls are words filed in the database; no cut-off is given here.

Assays:
[1] = target: Cholinesterase (Equus caballus) (UniProt P81908); experiment: Inhibition of equine BChE at 3.0 uM using butyrylthiocholine iodide as substrate measured from 0.5 to 1.5 mins by spectrophotometry based Ellman's method relative to control
[2] = target: Acetylcholinesterase (Electrophorus electricus) (UniProt O42275); experiment: Inhibition of electric eel AChE at 0.3 uM using acetylthiocholine iodide as substrate measured from 0.5 to 1.5 mins by spectrophotometry-based Ellman's method relative to control
Cholinesterase [3] = target: T1, Cholinesterase (Homo sapiens, UniProt P06276); experiment: Inhibition of human serum BChE using butyrylthiocholine iodide as substrate preincubated for 20 mins followed by substrate addition measured for 3 mins by Ellman's method
[4] = target: Acetylcholinesterase (Electrophorus electricus) (UniProt O42275); experiment: Inhibition of electric eel AChE at 3.0 uM using acetylthiocholine iodide as substrate measured from 0.5 to 1.5 mins by spectrophotometry-based Ellman's method relative to control
[5] = target: Acetylcholinesterase (Electrophorus electricus) (UniProt O42275); experiment: Time-dependent inhibition of electric eel AChE at 300 nM using acetylthiocholine iodide as substrate
Acetylcholinesterase [6] = target: T2, Acetylcholinesterase (Homo sapiens, UniProt P22303); experiment: Inhibition of human serum AChE at 25 uM using acetylthiocholine iodide as substrate preincubated for 20 mins followed by substrate addition measured for 3 mins by Ellman's method
[7] = target: Cholinesterase (Equus caballus) (UniProt P81908); experiment: Inhibition of equine BChE at 0.3 uM using butyrylthiocholine iodide as substrate measured from 0.5 to 1.5 mins by spectrophotometry based Ellman's method relative to control
[8] = target: Acetylcholinesterase (Electrophorus electricus) (UniProt O42275); experiment: Inhibition of electric eel AChE at 0.03 uM using acetylthiocholine iodide as substrate measured from 0.5 to 1.5 mins by spectrophotometry-based Ellman's method relative to control
Acetylcholinesterase [9] = target: Acetylcholinesterase (Electrophorus electricus, UniProt O42275); experiment: Mixed inhibition of electric eel AChE using acetylthiocholine iodide as substrate measured from 0.5 to 1.5 mins by Dixon plot analysis
Acetylcholinesterase [10] = target: T2, Acetylcholinesterase; experiment: Inhibition of human serum AChE using acetylthiocholine iodide as substrate preincubated for 20 mins followed by substrate addition measured for 3 mins by Ellman's method
[11] = Cytotoxicity against human T67 cells after 24 hrs by MTT assay; type: cell-based; settings: T67, 24 h
HeLa [12] = experiment: Cytotoxicity against human HeLa cells after 24 hrs by MTT assay; type: cell-based
HeLa [13] = experiment: Cytotoxicity against human HeLa cells assessed as cell mortality at 10 uM after 24 hrs by MTT assay; type: cell-based
[14] = Cytotoxicity against human T67 cells assessed as cell mortality at 10 uM after 24 hrs by MTT assay; type: cell-based
[15] = Cytotoxicity against human T67 cells assessed as effect on cell viability up to 10 uM after 24 hrs by MTT assay; type: cell-based
[16] = target: Cholinesterase (Equus caballus) (UniProt P81908); experiment: Inhibition of equine BChE at 30 uM using butyrylthiocholine iodide as substrate measured from 0.5 to 1.5 mins by spectrophotometry based Ellman's method relative to control
HeLa [17] = experiment: Cytotoxicity against human HeLa cells assessed as effect on cell viability up to 10 uM after 24 hrs by MTT assay; type: cell-based
Cholinesterase [18] = target: T1, Cholinesterase; experiment: Inhibition of human serum BChE at 25 uM using butyrylthiocholine iodide as substrate preincubated for 20 mins followed by substrate addition measured for 3 mins by Ellman's method

Chain of Cholinesterase (Equus caballus) (P81908 whole entry): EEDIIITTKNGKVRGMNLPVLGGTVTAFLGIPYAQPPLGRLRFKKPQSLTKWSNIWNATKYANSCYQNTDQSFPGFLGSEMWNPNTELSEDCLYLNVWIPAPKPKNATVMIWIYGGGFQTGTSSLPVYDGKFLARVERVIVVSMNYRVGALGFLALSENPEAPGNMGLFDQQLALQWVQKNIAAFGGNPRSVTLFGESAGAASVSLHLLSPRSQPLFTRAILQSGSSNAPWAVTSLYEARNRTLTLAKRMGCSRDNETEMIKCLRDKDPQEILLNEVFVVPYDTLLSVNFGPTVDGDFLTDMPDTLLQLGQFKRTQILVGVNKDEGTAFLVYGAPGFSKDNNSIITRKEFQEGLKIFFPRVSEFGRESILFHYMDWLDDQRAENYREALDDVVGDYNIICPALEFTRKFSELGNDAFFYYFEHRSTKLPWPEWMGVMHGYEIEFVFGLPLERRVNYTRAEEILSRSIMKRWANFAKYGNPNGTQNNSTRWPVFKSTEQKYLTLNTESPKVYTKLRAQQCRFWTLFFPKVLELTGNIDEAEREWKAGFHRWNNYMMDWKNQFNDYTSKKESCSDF
Chain of Acetylcholinesterase (Electrophorus electricus) (O42275 24-633 limits assumed): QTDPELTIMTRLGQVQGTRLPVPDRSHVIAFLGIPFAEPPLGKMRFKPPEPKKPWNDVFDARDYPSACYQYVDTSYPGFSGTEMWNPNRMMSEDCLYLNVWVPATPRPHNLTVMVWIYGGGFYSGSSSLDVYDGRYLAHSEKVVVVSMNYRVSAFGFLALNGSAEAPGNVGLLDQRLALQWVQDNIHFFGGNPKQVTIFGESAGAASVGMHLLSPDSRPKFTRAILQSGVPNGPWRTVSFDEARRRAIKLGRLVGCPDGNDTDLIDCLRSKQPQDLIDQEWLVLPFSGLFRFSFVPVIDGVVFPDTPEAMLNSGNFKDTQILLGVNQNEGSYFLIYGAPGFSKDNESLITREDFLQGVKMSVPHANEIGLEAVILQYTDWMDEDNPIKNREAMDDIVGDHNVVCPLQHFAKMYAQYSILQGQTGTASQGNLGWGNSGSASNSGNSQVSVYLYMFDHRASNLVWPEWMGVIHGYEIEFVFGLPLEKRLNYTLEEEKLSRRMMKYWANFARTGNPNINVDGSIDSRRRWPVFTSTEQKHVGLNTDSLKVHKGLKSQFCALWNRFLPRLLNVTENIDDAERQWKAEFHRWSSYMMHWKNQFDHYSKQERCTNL
Chain of Acetylcholinesterase (Electrophorus electricus, UniProt O42275) (O42275 whole entry): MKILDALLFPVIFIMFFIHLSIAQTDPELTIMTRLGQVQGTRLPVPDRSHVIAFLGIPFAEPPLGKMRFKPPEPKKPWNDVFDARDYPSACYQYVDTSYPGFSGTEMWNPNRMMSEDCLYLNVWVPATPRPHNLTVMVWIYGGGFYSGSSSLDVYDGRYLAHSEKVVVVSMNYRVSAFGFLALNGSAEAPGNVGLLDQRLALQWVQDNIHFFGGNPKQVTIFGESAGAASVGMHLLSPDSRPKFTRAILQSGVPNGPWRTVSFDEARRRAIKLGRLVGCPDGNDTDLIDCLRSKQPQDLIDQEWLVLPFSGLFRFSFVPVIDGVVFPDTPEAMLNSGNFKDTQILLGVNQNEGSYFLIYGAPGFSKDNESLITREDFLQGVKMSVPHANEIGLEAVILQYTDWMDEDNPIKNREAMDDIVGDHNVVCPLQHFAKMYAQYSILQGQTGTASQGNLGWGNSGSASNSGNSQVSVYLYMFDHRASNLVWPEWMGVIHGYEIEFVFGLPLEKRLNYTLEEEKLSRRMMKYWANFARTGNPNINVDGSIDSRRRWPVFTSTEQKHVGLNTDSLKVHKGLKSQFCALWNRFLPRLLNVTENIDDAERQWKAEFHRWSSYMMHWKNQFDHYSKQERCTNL
T2 sequence (P22303 whole entry): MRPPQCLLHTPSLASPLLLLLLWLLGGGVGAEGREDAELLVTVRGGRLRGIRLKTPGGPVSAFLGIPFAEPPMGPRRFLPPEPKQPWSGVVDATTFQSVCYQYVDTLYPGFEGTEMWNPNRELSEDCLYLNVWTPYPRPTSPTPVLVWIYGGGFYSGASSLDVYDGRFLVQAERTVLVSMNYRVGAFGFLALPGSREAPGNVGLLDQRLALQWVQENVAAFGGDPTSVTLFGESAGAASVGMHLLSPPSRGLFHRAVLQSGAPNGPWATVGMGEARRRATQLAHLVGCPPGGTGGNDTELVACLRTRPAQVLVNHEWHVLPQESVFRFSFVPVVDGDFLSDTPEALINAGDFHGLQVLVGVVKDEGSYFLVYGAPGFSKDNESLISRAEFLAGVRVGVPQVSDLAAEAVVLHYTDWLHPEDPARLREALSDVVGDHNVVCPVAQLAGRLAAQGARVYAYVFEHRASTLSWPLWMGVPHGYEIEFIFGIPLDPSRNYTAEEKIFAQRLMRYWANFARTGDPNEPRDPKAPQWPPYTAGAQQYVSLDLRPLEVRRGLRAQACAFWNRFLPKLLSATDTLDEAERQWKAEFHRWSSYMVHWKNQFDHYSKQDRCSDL
T1 sequence (P06276 whole entry): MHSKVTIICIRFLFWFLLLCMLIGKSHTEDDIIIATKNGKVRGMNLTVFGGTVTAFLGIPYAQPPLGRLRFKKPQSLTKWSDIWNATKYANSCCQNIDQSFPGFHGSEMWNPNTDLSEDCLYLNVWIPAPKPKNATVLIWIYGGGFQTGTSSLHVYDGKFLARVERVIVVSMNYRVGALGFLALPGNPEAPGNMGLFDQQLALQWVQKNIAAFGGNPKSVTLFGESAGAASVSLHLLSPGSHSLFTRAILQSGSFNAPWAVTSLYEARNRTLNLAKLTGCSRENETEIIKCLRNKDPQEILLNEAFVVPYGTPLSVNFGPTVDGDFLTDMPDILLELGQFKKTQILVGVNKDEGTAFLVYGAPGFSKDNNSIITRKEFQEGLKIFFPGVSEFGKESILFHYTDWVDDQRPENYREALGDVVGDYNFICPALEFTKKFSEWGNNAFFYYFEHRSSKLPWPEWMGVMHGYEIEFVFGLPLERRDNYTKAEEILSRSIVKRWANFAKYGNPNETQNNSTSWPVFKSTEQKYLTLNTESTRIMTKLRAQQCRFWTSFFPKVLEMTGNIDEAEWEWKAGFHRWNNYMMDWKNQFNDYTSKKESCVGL

Row | SMILES | inhibition [1] [%] | inhibition [2] | IC50 (Cholinesterase [3]) [µM] | inhibition [4] [%] | TDI [5] | inhibition (Acetylcholinesterase [6]) [%] | inhibition [7] [%] | inhibition [8] [%] | Ki (Acetylcholinesterase [9]) [µM] | IC50 (Acetylcholinesterase [10]) [µM] | IC50 [11] [µM] | IC50 (HeLa [12]) [µM] | Activity (HeLa [13]) [%] | Activity [14] [%] | Activity [15] | inhibition [16] [%] | Activity (HeLa [17]) | inhibition (Cholinesterase [18]) [%]
1 | O=C(Nc1cc(Cl)nc(Cl)c1)OCCCCCNCc1ccc(Oc2ccccc2)cc1 | 60 | < 5% | 8.41 | 24 | inactive | < 20 | – | – | – | – | – | – | – | – | – | – | – | –
2 | COc1ccccc1CNCCCCCOC(=O)Nc1cc(Cl)nc(Cl)c1 | 49 | 50% | 4.02 | 89 | inactive | – | < 5 | 10 | 0.288 | 6.16 | – | – | – | – | – | – | – | –
3 | O=C(Nc1cc(Cl)nc(Cl)c1)OCCCCCNCc1c[nH]c2ccccc12 | 57 | 76% | 0.828 | 97 | inactive | – | 8 | 24 | 0.157 | 0.648 | 5.8 | 6.7 | 50 | 50 | – | – | – | –
4 | O=C(Nc1cc(Cl)nc(Cl)c1)OCCCCCNCc1ccccc1 | – | 91% | 4.59 | 99 | inactive | – | 17 | 65 | 0.0386 | 0.153 | 24.1 | 20.8 | – | – | Non-Toxic | 95 | Non-Toxic | –
5 | O=C(Nc1ccncc1Br)OCCCCCNCc1ccccc1 | 57 | 55% | 5.27 | 90 | inactive | – | < 5 | 20 | 0.404 | 4.04 | – | – | – | – | – | – | – | –
6 | O=C(Nc1cc(Cl)nc(Cl)c1)OCCCCCCNCc1ccccc1 | – | 72% | 4.01 | 91 | inactive | – | 12 | 33 | 0.259 | 0.759 | 13.2 | 12.5 | 25 | 25 | – | 89 | – | –
7 | O=C(NCCCCCCNCc1ccc2ccccc2c1)c1cc(Cl)nc(Cl)c1 | 46 | inactive | 9.96 | 15 | – | – | – | – | – | 99.7 | – | – | – | – | – | – | – | –
8 | COc1ccccc1CNCCCCCCNC(=O)c1cc(Cl)nc(Cl)c1 | 54 | 49% | 45.5 | 90 | – | – | 6 | 14 | 0.355 | 8.3 | – | – | – | – | – | – | – | –
9 | O=C(NCCCCCCNCc1ccccc1)c1cc(Cl)nc(Cl)c1 | 73 | 71% | 25.8 | 95 | – | – | 17 | 18 | 0.0528 | 3.17 | – | – | – | – | – | – | – | –
10 | O=C(NCCCCCCNCc1ccc(Oc2ccccc2)cc1)c1cc(Cl)nc(Cl)c1 | 18 | inactive | – | 16 | – | < 20 | – | – | – | – | – | – | – | – | – | – | – | < 20
11 | O=C(NCCCCCCNCc1c[nH]c2ccccc12)c1cc(Cl)nc(Cl)c1 | 64 | 55% | 4.7 | 92 | – | – | 13 | 15 | 0.205 | 8.85 | – | – | – | – | – | – | – | –
